Measured values as given in patent US10138222B2, “Substituted benzamides as RIPK2 inhibitors” (Boehringer Ingelheim International GmbH, priority 2016, dated 2018).

Target: RIPK2 (Homo sapiens (Human), UniProt O43353)
Assay: RIPK2 inhibition, ADP-Glo Kinase Assay
Assay type: biochemical
Conditions: 8His-RIPK2 FL enzyme 8 nM, ATP 5 μM, 15 minutes pre-incubation, 60 minutes at 37° C., luminescence
Procedure: RIPK2 inhibition for compounds in Table 1 are shown in Table 3 and measured using the following method:
Materials: White, 384-well optiplates (cat.no. 6007290) were purchased from PerkinElmer. The V9103X ADP-Glo Kinase Assay Custom (including ultra-pure ATP) was purchased from Promega. 8His-RIPK2 FL was prepared in-house. All other materials were of highest grade commercially available.
Method: In a 384-well plate, test compound diluted in assay buffer (1% DMSO final) is mixed with 8His-RIPK2 FL enzyme (final concentration of 8 nM). After 15 minutes of pre-incubation at RT, ATP dissolved in assay buffer is added (final concentration 5 μM). The mixture is incubated for 60 minutes at 37° C. in a humidified incubator. Then, ADP Glo Reagent is added, followed by a 40 minute incubation at rt. Finally, Kinase Detection Reagent is added and the entire mixture is incubated for 40 min at RT. The luminescence signal is measured with an Envision reader to determine the amount of ADP produced. Assay buffer: 25 mM HEPES (4-(2-hydroxyethyl)-1-piperazinethanesulfonic acid), 0.1% BSA (bovine serum albumin), 10 mM MgCl2, 5 mM MnCl2, 50 mM KCl, 0.01% CHAPS (3-[(3-cholamidopropyl)dimethylammonio]-1-propanesulfonate), 10 μM Na3VO4, 1 mM DTT (dithiothreitol), pH 7.5 All plates contain wells with vehicle controls instead of compound (1% DMSO) as reference for the high signal (100% CTL (100% of control), high signal), and wells without enzyme as reference for low signal (0% CTL, low signal). The luminescent signal generated is proportional to the ADP produced and is correlated with enzyme activity. The analysis of the data is performed by the calculation of the percentage of ADP production in the presence of the test compound and RIPK2 as compared to the ADP production in the presence of RIPK2 plus 50 μM Gefitinib. (RLU (relative luminescence units) (sample)−RLU(low control))*100/(RLU(high value)−RLU(low control)) [RLU=relative luminescence units].

Sequence of RIPK2 (O43353 whole entry): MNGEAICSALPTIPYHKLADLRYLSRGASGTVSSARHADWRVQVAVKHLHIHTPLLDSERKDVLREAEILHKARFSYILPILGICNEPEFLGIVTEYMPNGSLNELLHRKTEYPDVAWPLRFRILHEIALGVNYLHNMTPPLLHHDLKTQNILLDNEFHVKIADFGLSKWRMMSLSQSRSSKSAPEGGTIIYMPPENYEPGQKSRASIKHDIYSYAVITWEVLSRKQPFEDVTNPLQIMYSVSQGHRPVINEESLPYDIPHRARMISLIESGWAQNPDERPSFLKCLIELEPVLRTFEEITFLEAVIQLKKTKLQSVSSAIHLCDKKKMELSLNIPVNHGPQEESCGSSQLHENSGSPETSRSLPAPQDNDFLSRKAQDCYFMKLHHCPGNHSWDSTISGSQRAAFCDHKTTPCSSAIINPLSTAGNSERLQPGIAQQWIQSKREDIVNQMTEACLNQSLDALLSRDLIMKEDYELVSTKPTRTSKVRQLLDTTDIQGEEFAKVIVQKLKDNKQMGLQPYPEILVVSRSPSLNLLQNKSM

SMILES	IC50
COCCNc1cncc(-n2cc(-c3cc(C(=O)NC4CC4)ccc3C)cn2)c1 [Example 60, N-cyclopropyl-3-(1-{5-[(2-methoxyethyl)amino]pyridin-3-yl}-1H-pyrazol-4-yl)-4-methylbenzamide]	8.4 nM
CC(=O)N1CCC(Nc2cncc(-n3cc(-c4cc(C(=O)NC5CC5)ccc4C)cn3)c2)CC1 [Example 63, 3-(1-{5-[(1-acetylpiperidin-4-yl)amino]pyridin-3-yl}-1H-pyrazol-4-yl)-N-cyclopropyl-4-methyl-benzamide]	1.9 nM
COC1CCC(Nc2cncc(-n3cc(-c4cc(C(=O)NC5CC5)ccc4C)cn3)c2)C1 (stereo not shown) [Example 65, N-cyclopropyl-3-(1-{5-[(3-methoxycyclopentyl)amino]pyridin-3-yl}-1H-pyrazol-4-yl)-4-methyl-benzamide]	2.3 nM
Cc1ccc(C(=O)NC2CC2)cc1-c1cnn(-c2cncc(N[C@@H]3C[C@H]4CC[C@@H]3O4)c2)c1 [Example 66, N-cyclopropyl-4-methyl-3-[1-(5-{[(1S,2R,4R)-7-oxabicyclo[2.2.1]heptan-2-yl]amino}pyridin-3-yl)-1H-pyrazol-4-yl]benzamide]	3.9 nM
Cc1ccc(C(=O)NC2CC2)cc1-c1cnn(-c2cncc(NC(C)C3CCOC3)c2)c1 (stereo not shown) [Example 67, N-cyclopropyl-4-methyl-3-[1-(5-{[1-(oxolan-3-yl)ethyl]amino}pyridin-3-yl)-1H-pyrazol-4-yl]benzamide]	1.6 nM
Cc1cc(F)c(C(=O)NC2CC2)cc1-c1cnn(-c2cncc(NC3CCN(C4COC4)CC3)c2)c1 [Example 68, N-cyclopropyl-2-fluoro-4-methyl-5-[1-(5-{[1-(oxetan-3-yl)piperidin-4-yl]amino}pyridin-3-yl)-1H-pyrazol-4-yl]benzamide]	1.1 nM
Cc1ccc(C(=O)NC2CC2)cc1-c1cn(-c2cncc(C3CC3)c2)cn1 [Example 71, N-cyclopropyl-3-[1-(5-cyclopropyl-pyridin-3-yl)-1H-imidazol-4-yl]-4-methylbenzamide]	2.7 nM
Cc1ccc(C(=O)NC2CC2)cc1-c1cn(-c2cncc(N(C)C)c2)cn1 [Example 72, N-cyclopropyl-3-{1-[5-(dimethyl-amino)pyridin-3-yl]-1H-imidazol-4-yl}-4-methylbenzamide]	3.9 nM
Cc1ccc(C(=O)NC2CC2)cc1-c1cnn(-c2cncc(NC3CCN(C(=O)OC(C)(C)C)CC3)c2)c1 [Example 73, tert-butyl 4-[(5-{4-[5-(cyclopropylcarbamoyl)-2-methyl-phenyl]-1H-pyrazol-1-yl}pyridin-3-yl)amino]piperidine-1-carboxylate]	15 nM
COCCN1CCC(Nc2cncc(-n3cc(-c4cc(C(=O)NC5CC5)c(F)cc4C)cn3)c2)CC1 [Example 74, N-cyclopropyl-2-fluoro-5-[1-(5-{[1-(2-methoxyethyl)piperidin-4-yl]amino}pyridin-3-yl)-1H-pyrazol-4-yl]-4-methylbenzamide]	1 nM
Cc1cc(F)c(C(=O)NC2CC2)cc1-c1cnn(-c2cncc(NC3CC4CCC(C3)N4C3COC3)c2)c1 (stereo not shown) [Example 75, N-cyclopropyl-2-fluoro-4-methyl-5-[1-(5-{[8-(oxetan-3-yl)-8-azabicyclo[3.2.1]octan-3-yl]amino}pyridin-3-yl)-1H-pyrazol-4-yl]benzamide]	0.9 nM
Cc1ccc(C(=O)NC2CC2)cc1-c1cnn(-c2cncc(NC3CCN(C)CC3)c2)c1 [Example 76, N-cyclopropyl-4-methyl-3-(1-{5-[(1-methylpiperidin-4-yl)amino]pyridin-3-yl}-1H-pyrazol-4-yl)benzamide]	0.61 nM
Cc1cc(F)c(C(=O)NC2CC2)cc1-c1cnn(-c2cncc(NC3CCN(C)CC3)c2)c1 [Example 77, N-cyclopropyl-2-fluoro-4-methyl-5-(1-{5-[(1-methylpiperidin-4-yl)amino]pyridin-3-yl}-1H-pyrazol-4-yl) benzamide]	1.1 nM
Cc1ccc(C(=O)NC2CC2)cc1-c1cnn(-c2cncc(NC3CCOCC3)c2)c1 [Example 78, N-cyclopropyl-4-methyl-3-(1-{5-[(oxan-4-yl)amino]pyridin-3-yl}-1H-pyrazol-4-yl)benzamide]	1.3 nM
Cc1ccc(C(=O)NC2CC2)cc1-c1cn(-c2cncc(NC3CCN(C4COC4)CC3)c2)cn1 [Example 79, N-cyclopropyl-4-methyl-3-[1-(5-{[1-(oxetan-3-yl)piperidin-4-yl]amino}pyridin-3-yl)-1H-imidazol-4-yl] benzamide]	1.4 nM
Cc1ccc(C(=O)NC2CC2)cc1-c1cnn(-c2cncc(OCc3ccccc3)c2)c1 [Example 80, 3-{1-[5-(benzyloxy)pyridin-3-yl]-1H-pyrazol-4-yl}-N-cyclopropyl-4-methylbenzamide]	26 nM

SMILES	IC50
Cc1ccc(C(=O)NC2CC2)cc1-c1cnn(-c2cncc(OC(C)C)c2)c1 [Example 81, N-cyclopropyl-4-methyl-3-{1-[5-(propan-2-yloxy)pyridin-3-yl]-1H-pyrazol-4-yl}benzamide]	5.4 nM
Cc1ccc(C(=O)NC2CC2)cc1-c1cnn(-c2cncc(NC3CCNCC3)c2)c1 [Example 92, N-cyclopropyl-4-methyl-3-(1-{5-[(piperidin-4-yl)amino]pyridin-3-yl}-1H-pyrazol-4-yl)benzamide]	1.5 nM
Cc1ccc(C(=O)NC2CC2)cc1-c1cnn(-c2cncc(NC3CCN(C4CCC4)CC3)c2)c1 [Example 93, 3-(1-{5-[(1-cyclobutylpiperidin-4-yl)amino]pyridin-3-yl}-1H-pyrazol-4-yl)-N-cyclopropyl-4-methyl-benzamide]	1.5 nM
Cc1ccc(C(=O)NC2CC2)cc1-c1cnn(-c2cncc(NC3CCN(C4COC4)CC3)c2)c1 [Example 94, N-cyclopropyl-4-methyl-3-[1-(5-{[1-(oxetan-3-yl)piperidin-4-yl]amino}pyridin-3-yl)-1H-pyrazol-4-yl] benzamide]	0.81 nM
Cc1ccc(C(=O)NC2CC2)cc1-c1cnn(-c2cncc(O)c2)c1 [Example 95, N-cyclopropyl-3-[1-(5-hydroxypyridin-3-yl)-1H-pyrazol-4-yl]-4-methyl-benzamide]	6.1 nM
Cc1ccc(C(=O)NC2CC2)cc1-c1cnn(-c2cncc(OC3CCOCC3)c2)c1 [Example 96, N-cyclopropyl-4-methyl-3-{1-[5-(oxan-4-yloxy)pyridin-3-yl]-1H-pyrazol-4-yl}benzamide]	5.4 nM
Cc1ccc(C(=O)NC2CC2)cc1-c1cnn(-c2cncc(NC3CCCCC3)c2)c1 [Example 97, 3-{1-[5-(cyclohexylamino)pyridin-3-yl]-1H-pyrazol-4-yl}-N-cyclo-propyl-4-methylbenzamide]	3.3 nM
Cc1ccc(C(=O)NC2CC2)cc1-c1cnn(-c2cncc(N3CCOCC3)c2)c1 [Example 98, N-cyclopropyl-4-methyl-3-{1-[5-(morpholin-4-yl)pyridin-3-yl]-1H-pyrazol-4-yl}benzamide]	10 nM
Cc1ccc(C(=O)NC2CC2)cc1-c1cnn(-c2cncc(NCC3CC3)c2)c1 [Example 99, N-cyclopropyl-3-(1-{5-[(cyclopropylmethyl)amino]pyridin-3-yl}-1H-pyrazol-4-yl)-4-methyl-benzamide]	2.6 nM
Cc1ccc(C(=O)NC2CC2)cc1-c1cnn(-c2cncc(N3CCN(C)CC3)c2)c1 [Example 100, N-cyclopropyl-4-methyl-3-{1-[5-(4-methylpiperazin-1-yl)pyridin-3-yl]-1H-pyrazol-4-yl}benzamide]	29 nM
Cc1ccc(C(=O)NC2CC2)cc1-c1cnn(-c2cncc(C3(C(N)=O)CC3)c2)c1 [Example 101, 3-{1-[5-(1-carbamoylcyclopropyl)pyridin-3-yl]-1H-pyrazol-4-yl}-N-cyclopropyl-4-methylbenzamide]	370 nM
O=C(NC1CC1)c1cc(-c2cnn(-c3cncc(C4CC4)c3)c2)c(Cl)cc1F [Example 104, 4-chloro-N-cyclopropyl-5-[1-(5-cyclopropylpyridin-3-yl)-1H-pyrazol-4-yl]-2-fluorobenzamide]	1.9 nM
Cc1cc(F)c(C(=O)NC2CC2)cc1-c1cnn(-c2cncc(C3CC3)c2)c1 [Example 105, N-cyclopropyl-5-[1-(5-cyclopropyl-pyridin-3-yl)-1H-pyrazol-4-yl]-2-fluoro-4-methylbenzamide]	1 nM
Cc1ccc(C(=O)NC2CC2)cc1-c1cnn(-c2cncc(N)c2)c1 [Example 106, 3-[1-(5-aminopyridin-3-yl)-1H-pyrazol-4-yl]-N-cyclopropyl-4-methylbenzamide]	7 nM
CNC(=O)Nc1cncc(-n2cc(-c3cc(C(=O)NC4CC4)ccc3C)cn2)c1 [Example 107, N-cyclopropyl-4-methyl-3-(1-{5-[(methylcarbamoyl)amino]pyridin-3-yl}-1H-pyrazol-4-yl)benzamide]	3.3 nM
